The nature of data set [1]: Drug uptake in iv dosed Wistar rat brain assessed as standardized uptake value after 120 mins by PET imaging analysis. Format: ADME, organism-based. The conditions noted are these: in vivo, 2 h.
Data set [2] is described as follows: Drug uptake in iv dosed mouse liver assessed as standardized uptake value at 5 mins by PET imaging analysis. It is filed as ADME, organism-based. Conditions: in vivo; call rule not given here.
A short description of data set [3]: Drug uptake in iv dosed monkey brain assessed as standardized uptake value after 90 mins by PET imaging analysis. Format: ADME, organism-based, Macaca mulatta. Conditions: rhesus monkey, in vivo, 1.5 h.
A short description of data set [4]: Drug uptake in iv dosed Wistar rat brain after 3 mins. Format: ADME, organism-based. Conditions: in vivo, 0.05 h.
The nature of data set [5]: Drug uptake in iv dosed mouse brain assessed as standardized uptake value by PET imaging analysis. Conditions: in vivo. It is filed as ADME, organism-based.
Data set [6] in a line: Drug metabolism in iv dosed Wistar rat blood assessed as metabolite formation after 30 mins RP-HPLC analysis. Format: ADME, organism-based. Conditions: in vivo, 0.5 h.
Data set [7] is described as follows: Drug metabolism in iv dosed Wistar rat brain assessed as metabolite formation after 30 to 90 mins RP-HPLC analysis. Format: ADME, organism-based. The conditions noted are these: in vivo, time 30-90 min.
A short description of data set [8]: Drug uptake in iv dosed mouse liver assessed as standardized uptake value at 60 mins by PET imaging analysis. Format: ADME, organism-based. The conditions noted are these: in vivo, 1 h.
Data set [9] is described as follows: Drug uptake in iv dosed Wistar rat assessed as standardized uptake value by PET imaging analysis. Conditions: in vivo. It is filed as ADME, organism-based.

In the case of `CC(C)=CCC/C(C)=C/CC/C(C)=C/C=C/C([11CH3])=C/C(=O)O`, the SUV in data set [1] was 1.4; in data set [2], 6.7; in data set [3] it was over 3; in data set [5] it was 0.8; in data set [8], 4.3. For the same molecule, the Drug uptake entry in data set [4] was “Active”. In addition, the Drug metabolism entry in [6] and in [7] was “Metabolite_Detected” throughout.

For the molecule `CC(C)=CCC/C(C)=C/CC/C(C)=C/C=C/C([11CH3])=C/C(=O)OCc1ccccc1`, the SUV in data set [9] was found to be 0.6.

The values above are taken from ChEMBL document CHEMBL5252604, “11C-Labeling of acyclic retinoid peretinoin by rapid C-[11C]methylation to disclose novel brain permeability and central nervous system activities hidden in antitumor agent” (Bioorg Med Chem Lett, 2023).
